Patent US20190352276A1, “INHIBITORS OF BRUTON'S TYROSINE KINASE” (Joint Stock Company "Biocad", priority 2016, published 2019)
Where two headings read alike, the source gives them in different places.

Columns and labels:
[1] = target: T1, recombinant Btk kinase enzyme (Homo sapiens, UniProt Q06187); assay: In vitro inhibition of Btk kinase activity (ADP-Glo); type: biochemical
T1 construct: purchased SignalChem B10-10H
Protocol: To assess Btk kinase activity described herein, SignalChem kinase system was used. Btk kinase activity was determined in the reaction between recombinant Btk kinase enzyme (SignalChem #B10-10H) and Poly (4:1 Glu, Tyr) peptide substrate in the presence of the inhibitor.
Staurosporine (Abcam Biochemicals, ab146588) was used as a reference inhibitor and 0.1% DMSO in the reaction buffer—as a negative control. The solution of 0.5 mg/mL peptide substrate and 50 &M ATP in the same buffer were added; the solution was incubated for 180 minutes at 37° C. To detect the amount of ATP taken up during the kinase reaction, the equivalent amount of ADP (from the ADP Glo Detection Kit (Promega, #V9101)) was used according to the protocol. The reaction mixture was equilibrated to room temperature. 25 µL of ADP-Glo Reagent were added into each well; the plate was incubated for 40 minutes. 50 μL of Kinase Detection Reagent were added; the plate was incubated for 30 minutes. The luminescence was measured with multimode plate reader (Tecan Infinite M200Pro, Switzerland). IC50 values were calculated using Magellan 7.2 software (Tecan, Switzerland) approximating experimental points by four-parameter logistic model with the optimization by Levenberg-Marquardt.

[2] = Permeability through the monolayer of Caco-2 cells; type: in vitro ADME; settings: human; for Papp A→B at 2 h, 10 μM / Papp B→A at 2 h, 10 μM: 2 h at 37° C.; for efflux ratio at 2 h, 10 μM: read-out: efflux (Papp B-A/Papp A-B)
From the text: Assessment of permeability through the monolayer of Caco-2 cells allows to evaluate the ability of the candidate compounds to penetrate through biological membranes by active and passive transport.
Caco-2, the cells of the intestinal epithelium, had been cultured in transwell plate inserts with the filters (with pores of 0.4 μm, BD Falcon with High Density, #353495) for 21 days, and then the integrity of the monolayer were estimated with Lucifer Yellow dye (Sigma-Aldrich, USA) by standard protocol. When setting the A→B transfer, solutions of test substances were added in a buffer with pH 6.5 (Hanks solution, 10 mM HEPES, 15 mM glucose solution) with the concentration of 10 μM into the upper chamber; the lower chamber was filled with a buffer with pH 7.4 (Hanks solution, 10 mM HEPES, 15 mM glucose solution, 1% BSA). When setting B→A transfer, the upper chamber was filled with the buffer with pH 6.5, and solutions of the test substances were added in the buffer with pH 7.4 at the concentration of 10 μM in the lower chamber. Propranolol was used as a control substance (as it has high permeability).
We used gradient elution (1 mL/min flow rate). We determined the areas of peaks corresponding to the compounds. On the basis of peak areas in the calibration standards we determined the concentration of compound in the initial solution and in the samples from the wells of the upper and lower chambers.
Papp, permeability through the cell layer, was calculated using the following formula:
Papp=(C(t)*V)/(C(0)*t*Area), where
Papp is the effective constant of permeability, m/s V is the volume of solution (0.8 ml in A→B test, 0.2 ml in B→A test), ml Area is the surface area of the membrane (0.33 cm^2), cm^2 t is the time of incubation (7200 sec), sec C(0) is the concentration of the initial solution, μM C(t) is the concentration of the solution after 2 hours (the concentration in the sample from the well of the lower chamber in A→B test; the concentration in the sample from the well of the top chamber in B→A test), μM
The value was calculated with the following formula:
efflux=Papp B-A/Papp A-B, where
Papp A-B is the value of the permeability in the direct test (A→B); Papp B-A is the value of the permeability in the backward test in (B→A).

[3] = system: Z-138 (mantle cell lymphoma); assay: Antiproliferative activity, Z-138 cells (Alamar Blue); type: cell-based; settings: Homo sapiens
Procedure, shortened: (§1)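 Cells (~3*10^4 per well) in RPMI-1640 with 10% FBS and gentamicin were exposed to diluted compounds (DMSO <1%) for 72 h at 37 °C, 5% CO2. Alamar Blue was then added for 14-16 h, and fluorescence was read at Ex 540/Em 590 nm. IC50 came from a four-parameter logistic fit.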

[4] = system: Mino (mantle cell lymphoma); assay: Antiproliferative activity, Mino cells (Alamar Blue); type: cell-based; settings: Homo sapiens
Procedure, shortened: as §1

[5] = system: HepG2 cells (hepatocellular carcinoma); assay: General cytotoxicity on HepG2 cells (CC50; therapeutic index CC50 HepG2/IC50 Mino); type: cell-based; settings: therapeutic index
Procedure, shortened: (§2)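 Cells seeded at 2*10^4 per well in DMEM, compounds added after 24 h at 200 μM to 4 μM final and incubated 72 h. Viability read with Alamar Blue to derive CC50; therapeutic index is CC50 (HepG2) divided by IC50 (Mino).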

[6] = as above; type: cell-based; settings: human, HepG2 cells (hepatocellular carcinoma), 72 hours, Alamar Blue
Procedure, shortened: as §2

[7] = system: DOHH2 (follicular lymphoma); assay: Antiproliferative activity, DOHH2 cells (Alamar Blue); type: cell-based; settings: Homo sapiens, DOHH-2, Table 10, 72 h, average of several tests
Protocol: Antiproliferative activity of BTK inhibitors was measured in cell-based bioassay on B-cells cultures: Mino (mantle cell lymphoma, ATCC® CRL-3000™), Z-138 (mantle cell lymphoma, ATCC® CRL-3001™) and DOHH2 (follicular lymphoma, Creative Bioarray CSC-C0219) using cell viability reagent Alamar Blue (Invitrogen, #DAL 1100). Cells were cultured in 10% FB S-supplemented (HyClone, #SH3008803/Gibco, #16140-071) RPMI-1640 (PanEco, #S330p) for at least 1 passage after thawing, washed with PBS and passaged in 96-well culture plates (Corning, #3599) with growth medium with 10% FBS (HyClone, #SH3008803/Gibco, #16140-071) and antibiotic (50 μg/ml of gentamicin (Biolot, #1.3.16))≈3*10^4 cells in 50 μl of medium per well.
The compounds were dissolved in DMSO and diluted with the assay medium to final concentrations ranging from […]. 150 μl of each diluted compound were then added to each well (final concentration of DMSO was less than 1%) and incubated at 37° C. in an incubator under 5% of CO2 for 72 h. After incubation, 20 μl of Alamar Blue reagent (Invitrogen, #DAL1100) were added to each well. The plates were shaked on an orbital shaker (Biosan, Latvia) and then incubated for 14-16 hours at 37° C. in the incubator.
The number of living cells were estimated, measuring the fluorescence signal at the excitation wavelength (REx) of 540 nm and the emission wavelength (λEm) of 590 nm on a microplate reader (Tecan Infinite M200Pro, Switzerland).
For each compound, IC50 was calculated using Magellan 7.2 software (Tecan, Switzerland) approximating experimental points by four-parameter logistic model with the optimization by Levenberg-Marquardt.

[8] = Stability in human blood plasma; settings: 10 μM in pooled human blood plasma, incubated 4 hours at 37° C.
[9] = Chemical stability in artificial gastric fluid (SGF without enzymes); settings: 10 μM in SGF without enzymes, pH=1.4, 37° C.
[10] = Table 8, ADP-Glo, read-out: IC50 kinase BTK
[11] = Table 10, 72 h, average of several tests
[12] = Table 10, average of several tests

T1 sequence (Q06187 whole entry): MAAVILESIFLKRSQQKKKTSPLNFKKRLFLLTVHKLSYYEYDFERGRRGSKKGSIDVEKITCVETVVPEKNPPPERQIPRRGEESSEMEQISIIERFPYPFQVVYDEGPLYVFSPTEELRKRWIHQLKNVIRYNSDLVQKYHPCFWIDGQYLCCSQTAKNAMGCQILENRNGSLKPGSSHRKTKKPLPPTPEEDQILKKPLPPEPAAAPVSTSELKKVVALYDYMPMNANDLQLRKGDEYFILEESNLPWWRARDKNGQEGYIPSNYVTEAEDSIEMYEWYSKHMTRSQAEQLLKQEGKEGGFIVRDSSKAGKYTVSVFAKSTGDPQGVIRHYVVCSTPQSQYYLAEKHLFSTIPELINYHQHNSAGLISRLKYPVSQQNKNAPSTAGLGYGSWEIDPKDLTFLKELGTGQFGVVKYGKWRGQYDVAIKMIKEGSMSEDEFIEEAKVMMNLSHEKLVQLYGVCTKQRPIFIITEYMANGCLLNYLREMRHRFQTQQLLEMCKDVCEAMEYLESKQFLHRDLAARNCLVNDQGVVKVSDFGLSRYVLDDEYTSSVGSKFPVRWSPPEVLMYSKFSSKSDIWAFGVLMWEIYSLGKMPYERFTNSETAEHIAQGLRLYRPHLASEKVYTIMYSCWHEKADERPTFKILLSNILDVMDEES

Compound	IC50 [1, 10] [nM]	IC50 [3, 11] [nM]	IC50 [4, 11] [nM]	CC50 (HepG2)/IC50 (Mino) ([5]; Table 10)	CC50 at 72 h [6, 12] [nM]	IC50 [7] [nM]	Amount of substance in the sample in % (chemical stability) [9] [%]	also measured
C=CC(=O)N1CCC[C@@H](n2nc(-c3ccc(Oc4ccncc4)cc3)c3cncc(C#N)c32)C1 [BCD-BTK-123, (R)-1-(1-acryloylpiperidin-3-yl)-3-(4(pyridin-4-yloxy)phenyl)-1H-pyrazolo[4,3-c]pyridin-7-carbonitrile]								IC50 ([1]; Table 11, BTK kinase, read-out: IC50 kinase): 1510 nM; Papp A→B at 2 h, 10 μM [2]: 14.8 ×10⁻⁶ cm/s; Papp B→A at 2 h, 10 μM [2]: 7.4 ×10⁻⁶ cm/s; efflux ratio at 2 h, 10 μM [2]: 0.5; IC50 ([3]; Table 11, 72 h): 28000 nM; IC50 ([4]; Table 11, 72 h): 13200 nM; CC50 (HepG2)/IC50 (Mino) ([5]; Table 11): 3.81; CC50 at 72 h ([6]; Table 11): 50400 nM
C=CC(=O)N1CCC[C@@H](n2nc(-c3ccc(C(=O)Nc4cc(C(F)(F)CC)ccn4)cc3)c3cncc(Cl)c32)C1 [BCD-BTK-215, (R)-4-(1-(1-acryloylpiperidin-3-yl)-7-chloro-1H-pyrazolo[4,3-c]pyridin-3-yl)-N-(4-(1,1-difluoropropyl)pyridin-2-yl)benzamide]	35.8	8000	2930	>34.11	> 100000	> 100000		
C=CC(=O)N1CCC[C@@H](n2nc(-c3ccc(C(=O)Nc4ccccn4)cc3)c3cncc(C#N)c32)C1 [BCD-BTK-228, (R)-4-(1-(1-acryloylpiperidin-3-yl)-7-cyano-1H-pyrazolo[4,3-c]pyridin-3-yl)-N-(pyridin-2-yl)benzamide]	38.9						99.9	Amount of substance in the sample, % (stability in human blood plasma) [8]: 85.2%; Papp A→B at 2 h, 10 μM [2]: 8 ×10⁻⁶ cm/s; Papp B→A at 2 h, 10 μM [2]: 1.4 ×10⁻⁶ cm/s; efflux ratio at 2 h, 10 μM [2]: 0.17
C=CC(=O)N1CCC[C@@H](n2nc(-c3ccc(C(=O)Nc4ncccc4F)cc3)c3c(N)ncc(Cl)c32)C1 [BCD-BTK-233, (R)-4-(1-(1-acryloylpiperidin-3-yl)-4-amino-7-chloro-1H-pyrazolo[4,3-c]pyridin-3-yl)-N-(3-fluoropyridin-2-yl)benzamide]	11.5	4110	5440	3.39	18400	1110	100	
C=CC(=O)N1CCC[C@@H](n2nc(-c3ccc(C(=O)Nc4ccc(F)cn4)cc3)c3cncc(F)c32)C1 [BCD-BTK-244, (R)-4-(1-(1-acryloylpiperidin-3-yl)-7-fluoro-1H-pyrazolo[4,3-c]pyridin-3-yl)-N-(5-fluoropyridin-2-yl)benzamide]	55.7						100	
C=CC(=O)N1CCC[C@@H](n2nc(-c3ccc(C(=O)Nc4cc(C(F)(F)CCC)ccn4)cc3)c3cncc(F)c32)C1 [BCD-BTK-247, (R)-4-(1-(1-acryloylpiperidin-3-yl)-7-fluoro-1H-pyrazolo[4,3-c]pyridin-3-yl)-N-(4-(1,1-difluorobutyl)pyridin-2-yl)benzamide]	14.7	> 50000	5810	>17.21	> 100000	> 100000		
C=CC(=O)N1CCC[C@@H](n2nc(-c3ccc(C(=O)Nc4cccc(F)n4)cc3)c3c(N)ncc(Cl)c32)C1 [BCD-BTK-250, (R)-4-(1-(1-acryloylpiperidin-3-yl)-4-amino-7-chloro-1H-pyrazolo[4,3-c]pyridin-3-yl)-N-(6-fluoropyridin-2-yl)benzamide]	15.3	3260	2380	5.13	12200			
C=CC(=O)N1CCC[C@@H](n2nc(-c3ccc(C(=O)Nc4cc(C(F)(F)CCC)ccn4)cc3)c3c(N)ncc(Cl)c32)C1 [BCD-BTK-254, (R)-4-(1-(1-acryloylpiperidin-3-yl)-4-amino-7-chloro-1H-pyrazolo[4,3-c]pyridin-3-yl)-N-(4-(1,1-difluorobutyl)pyridin-2-yl)benzamide]	11.2	6650	2950	4.18	12300			
C=CC(=O)N1CC[C@H](n2nc(-c3ccc(C(=O)Nc4ccccn4)cc3)c3cncc(Cl)c32)C1 [BCD-BTK-273, (S)-4-(1-(1-acryloylpyrrolidin-3-yl)-7-chloro-1H-pyrazolo[4,3-c]pyridin-3-yl)-N-(pyridin-2-yl)benzamide]	26.1						100	
C=CC(=O)N1CCC[C@H](Cn2nc(-c3ccc(C(=O)Nc4ccccn4)cc3)c3cncc(Cl)c32)C1 [BCD-BTK-290, (S)-4-(1-((1-acryloylpiperidin-3-yl)methyl)-7-chloro-1H-pyrazolo[4,3-c]pyridin-3-yl)-N-(pyridin-2-yl)benzamide]	19.6						100	Amount of substance in the sample, % (stability in human blood plasma) [8]: 100.0%
CC#CC(=O)N1CCC[C@@H](n2nc(-c3ccc(C(=O)Nc4ccccn4)cc3)c3c(N)ncc(Cl)c32)C1 [BCD-BTK-295, (R)-4-(4-amino-1-(1-(but-2-ynoyl)piperidin-3-yl)-7-chloro-1H-pyrazolo[4,3-c]pyridin-3-yl)-N-(pyridin-2-yl)benzamide]	65.2	1190	2000	16.23	32500	1940		
